# Results: patent US20020156032A1, “Inhibition of DNA methyltransferase” (priority 1994, published 2002)
# Legend:
# Y1 cells [1] = experiment: Viability by trypan blue staining under serum deprivation; type: cell-based; settings: 0-10 μM for 72 h, then 1% horse serum five days without drug
# Description: Factors present in the serum are essential for the survival of many nontumorigenic cells. […] For example, the oncogene bc1-2 is not a stimulator of cell proliferation but rather causes inhibition of apoptosis. […] It was reasoned that as factors in the serum are known to act as survival factors for cells, an apoptotic program could be activated only when these factors are remove. To test whether pZαM transfectants undergo programmed cell death under serum deprived condition, the effects of serum starvation on these transfectants was studied. pZαM transfectants and control Yl pZEM transfectants (3×10^5 per well) were plated in low serum medium (1% horse serum) in six well plates, harvested every 24 hours and tested for viability by trypan blue staining (FIG. 7B).
# 1×10^5 Y1 cells were plated in growth medium. Twenty-four hours after plating, the medium was replaced with fresh medium containing various concentrations (0-10 μM) of 5 azaCdR (Sigma). The medium was removed and replaced with fresh medium containing 5 azaCdR every 12 h for a period of 72 h. Following 5 azaCdR treatment the cells were plated onto a six well dish in growth medium (100, 300, 500 cells per well) for cologinecity determinations, in soft agar for determining anchorage independent growth (3×10^3 cells per well) and in low serum (1% horse serum) for five days to determine viability under serum deprived conditions. […]
# DNA MeTase = target: T1, DNA MeTase (Mus musculus, UniProt P13864); experiment: Nearest neighbour analysis of methylated cytosines in CpG of total genomic DNA; type: cell-based, murine; settings: Y1 cells, 0-10 μM for 72 h
# T1 construct: endogenous in cells; host or cells: Y1 cells (parental, pZEM control transfectants and pZαM antisense transfectants)
# Description: To determine whether expression of antisense RNA to the DNA MeTase gene leads to a general reduction in the level of methylation of the genome, we resorted to “nearest neighbour” analysis using [α-32P]-dGTP as previously was performed. This assay enables the determination of the percentage of methylated cytosines residing in the dinucleotide sequence CpG (Razin et al., 1985, IN Biochemistry and Biology of DNA methylation, p. 239, Razin et al., (Ed), Allan R. Liss, Inc. N.Y.). […] Equal amounts of radioactivity were loaded on TLC phosphocellulose plates (Merck) and the 3′ mononucleotides were separated by chromatography in one dimension (iso-butyric acid: H2O:NH4OH in the ratio 66:33:1). The chromatograms were exposed to XAR™ film (Eastman-Kodak) and the spots corresponding to cytosine and 5-methylcytosine were scraped and counted in a β-scintillation counter.
# Transfectants and control DNAs were nicked with DNAaseI, nick translated with a single nucleotide [α-32P]-dGTP using DNA polymerase I and the labelled DNA was digested to 3′ mononucleotide phosphates with micrococal nuclease which cleaves DNA 3′ to the introduced α-32p. The [α-32P] labelled 5′ neighbours of dGMP were separated by chromatography on a TLC plate, the resulting spots for dCMP and dC^metMp were scraped and counted by liquid scintillation. […]
# Y1 cells [2] = experiment: Anchorage independent growth in soft agar; type: cell-based; settings: 0-10 μM for 72 h, then soft agar without drug
# Description: Yl cells were maintained as monolayers in F-10 medium which was supplemented with 7.25% heat inactivated horse serum and 2.5% heat inactivated fetal calf serum (Immunocorp, Montreal). All other media and reagents for cell culture were obtained from GIBCO-BRL. Yl cells (1×10^6) were plated on a 150 mm dish (Nunc) 15 hours before transfection. The pZαM expression vector encoding the 5′ of the murine DNA MeTase cDNA (10 ug) was cointroduced into Yl cells with 1 ug of pUCSVneo as a selectable marker by DNA mediated gene transfer using the calcium phosphate protocol (Ausubel et al., 1988, In Current Protocols in Molecular Biology. Wiley and Sons, New York). Selection was initiated 48 hours after transfection by adding 0.25 mg/ml G418 (GIBCO-BRL) to the medium. G418 resistant cells were cloned in selective medium. […] Growth was scored as colonies containing >10 cells, 21 days after plating.
# To determine whether the expression of antisense to the DNA MeTase results in reversal of the tumorigenic potential the ability of the transfectants to grow in an anchorage independent fashion, which is considered an indicator of tumorigenicity, was also determined. […] Growth on soft agar was quantified by visual examination and presented graphically in FIG. 4C. […]
# T1 sequence (P13864 whole entry): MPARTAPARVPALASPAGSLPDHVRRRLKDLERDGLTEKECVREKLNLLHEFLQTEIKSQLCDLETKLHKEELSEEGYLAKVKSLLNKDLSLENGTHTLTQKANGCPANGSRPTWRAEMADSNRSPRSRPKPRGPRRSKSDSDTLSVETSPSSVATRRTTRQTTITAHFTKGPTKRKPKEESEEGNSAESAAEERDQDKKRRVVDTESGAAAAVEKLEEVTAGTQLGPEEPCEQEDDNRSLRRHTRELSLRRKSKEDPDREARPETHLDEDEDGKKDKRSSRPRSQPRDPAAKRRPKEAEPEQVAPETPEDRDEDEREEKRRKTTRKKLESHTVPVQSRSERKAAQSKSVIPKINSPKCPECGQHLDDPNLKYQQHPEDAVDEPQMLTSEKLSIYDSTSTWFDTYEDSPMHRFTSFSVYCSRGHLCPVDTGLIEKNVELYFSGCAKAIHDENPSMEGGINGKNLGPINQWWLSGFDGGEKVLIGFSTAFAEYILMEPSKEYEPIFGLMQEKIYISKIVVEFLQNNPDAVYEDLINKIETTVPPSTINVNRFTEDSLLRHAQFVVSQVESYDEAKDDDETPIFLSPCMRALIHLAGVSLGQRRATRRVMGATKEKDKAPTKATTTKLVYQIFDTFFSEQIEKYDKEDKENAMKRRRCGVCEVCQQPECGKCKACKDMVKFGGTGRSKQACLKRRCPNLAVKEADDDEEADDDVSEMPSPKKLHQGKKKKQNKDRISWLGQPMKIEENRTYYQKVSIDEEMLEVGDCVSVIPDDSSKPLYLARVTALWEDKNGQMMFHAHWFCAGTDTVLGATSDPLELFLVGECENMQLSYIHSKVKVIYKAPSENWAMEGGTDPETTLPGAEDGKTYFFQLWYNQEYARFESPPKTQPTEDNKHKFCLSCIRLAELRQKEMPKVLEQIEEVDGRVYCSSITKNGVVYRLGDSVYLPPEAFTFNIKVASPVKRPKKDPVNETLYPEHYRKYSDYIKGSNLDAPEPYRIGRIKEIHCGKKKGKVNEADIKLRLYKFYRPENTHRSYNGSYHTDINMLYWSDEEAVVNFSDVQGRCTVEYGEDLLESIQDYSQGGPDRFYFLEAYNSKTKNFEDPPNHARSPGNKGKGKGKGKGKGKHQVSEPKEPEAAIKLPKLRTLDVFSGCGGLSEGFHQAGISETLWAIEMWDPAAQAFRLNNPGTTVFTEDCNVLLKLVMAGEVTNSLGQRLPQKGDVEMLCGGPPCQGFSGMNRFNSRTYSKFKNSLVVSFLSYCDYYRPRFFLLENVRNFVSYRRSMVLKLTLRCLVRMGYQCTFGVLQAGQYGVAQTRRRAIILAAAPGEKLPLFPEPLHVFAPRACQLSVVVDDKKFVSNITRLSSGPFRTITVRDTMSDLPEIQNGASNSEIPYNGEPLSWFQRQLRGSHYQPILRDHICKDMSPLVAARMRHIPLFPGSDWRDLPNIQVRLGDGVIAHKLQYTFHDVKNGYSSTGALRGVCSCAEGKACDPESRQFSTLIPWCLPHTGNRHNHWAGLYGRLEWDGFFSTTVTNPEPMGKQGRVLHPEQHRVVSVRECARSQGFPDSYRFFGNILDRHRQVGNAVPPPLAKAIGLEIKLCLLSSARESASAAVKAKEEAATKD
structure (smiles),measurement,setting,value
Nc1ncn([C@H]2C[C@H](O)[C@@H](CO)O2)c(=O)n1 [5 azaCdR],viability of serum-starved cells,Y1 cells [1],decrease the viability of serum-starved cells
same,level of non-methylated cytosine in CpG,DNA MeTase,increase the level of non-methylated cytosine
same,growth on soft agar,Y1 cells [2],drastically inhibit the growth of Y1 cells on soft agar
